Experimental data as given in patent US11866712B2, “System based on the reassembly of GFP for studying the trans-translational activity and identifying new antibiotics” (UNIVERSITE DE RENNES 1, priority 2018, dated 2024).
“Also recorded” adds a separate entry of the source.

What was measured:
trans-translation = assay: in vitro trans-translation assay (PURExpress kit, tmRNAGFP11, SmpB, sfGFP1-10 nonstop; GFP fluorescence); assay type: biochemical, Escherichia coli; conditions: concentration of 10 μM; FIG. 3(B)
Protocol: (§1) In order to evaluate the tmRNA labeling activity in vitro, the present inventors used a reconstituted cell-free protein synthesis system (PURE for Protein Synthesis Using Recombinant Elements) (Shimizu et al., Nature Biotechnol., 2001, 19(8): 751-755). The experiments were carried out using the PURExpress® commercial kit (sold by New England Biolabs) containing all the purified components of Escherichia coli that are required to carry out both the transcription and the translation. In order to convert this kit into an in vitro fluorescent trans-translation system, the inventors added the components required for the trans-translation: tmRNAGFP11, the SmpB protein, and a non-stop DNA sequence encoding the first 10 domains of sfGFP (see Materials and Methods section).
Translation and trans-translation assays. The in vitro translation reactions were carried out according to the recommendations of New England Biolabs. The in vitro trans-translation assays were carried out in various steps using the PURExpress® protein synthesis kit (New England Biolabs). […]
Analysis by fluorescence. After overnight incubation at 37° C., the reaction volume was adjusted to 125 μL and transferred into a cuvette for analysis by fluorescence using an LS 55 fluorescence spectrometer (Perkin Elmer). The fluorescence intensity at 510 nm of the trans-translated sfalaGFP was determined using an excitation at 485 nm. […]

[1] = system: transcription and translation; assay: in vitro translation control: production of fluorescent sfalaGFP from PCR product in PURExpress kit; assay type: biochemical, Escherichia coli; conditions: KKL-35 10 μM added to the sfalaGFP PCR product; FIG. 3(A)
Protocol: as §1
Translation and trans-translation assays. The in vitro translation reactions were carried out according to the recommendations of New England Biolabs. […]
Analysis by fluorescence. After overnight incubation at 37° C., the reaction volume was adjusted to 125 μL and transferred into a cuvette for analysis by fluorescence using an LS 55 fluorescence spectrometer (Perkin Elmer). The fluorescence intensity at 510 nm of the trans-translated sfalaGFP was determined using an excitation at 485 nm.
The inventors first of all confirmed that there was no fluorescence generated by the components of the PURExpress® kit (see FIG. 3). […]

translation = conditions: known from Ramadoss et al., PNAS USA, 2013; cited from earlier work

O=C(Nc1nnc(-c2ccc(F)cc2)o1)c1ccc(Cl)cc1 [KKL-35]
activity against the trans-translation (trans-translation): slight activity | inhibition of transcription and of translation (anti-transcription and anti-translation activity) [1]: No inhibition; also recorded: absence | anti-translation activity (translation): strong
